Measured values taken from publication PMC8699473, “An Easily Expandable Multi-Drug LC-MS Assay for the Simultaneous Quantification of 57 Oral Antitumor Drugs in Human Plasma” (Cancers, 2021).

Test: Long-term stability in spiked pooled human plasma

| Compound | Long-term stability, 1 month, -20°C Accuracy [%] (validation standard 2xLLOV) | Long-term stability, 1 month, -80°C Accuracy [%] (validation standard 2xLLOV) | Long-term stability, 2 month, -20°C Accuracy [%] (validation standard 2xLLOV) | Long-term stability, 2 month, -80°C Accuracy [%] (validation standard 2xLLOV) | Long-term stability, 3 month, -20°C Accuracy [%] (validation standard 2xLLOV) | Long-term stability, 3 month, -80°C Accuracy [%] (validation standard 2xLLOV) | Long-term stability, 6 weeks, 4°C, without daylight Accuracy [%] (validation standard 2xLLOV) | Long-term stability, 1 month, -20°C Accuracy [%] (validation standard LLOV) | Long-term stability, 1 month, -80°C Accuracy [%] (validation standard LLOV) | Long-term stability, 2 month, -20°C Accuracy [%] (validation standard LLOV) | Long-term stability, 2 month, -80°C Accuracy [%] (validation standard LLOV) | Long-term stability, 3 month, -20°C Accuracy [%] (validation standard LLOV) | Long-term stability, 3 month, -80°C Accuracy [%] (validation standard LLOV) | Long-term stability, 1 month, -20°C Accuracy [%] (validation standard MOV) | Long-term stability, 1 month, -80°C Accuracy [%] (validation standard MOV) | Long-term stability, 2 month, -20°C Accuracy [%] (validation standard MOV) | Long-term stability, 2 month, -80°C Accuracy [%] (validation standard MOV) | Long-term stability, 3 month, -20°C Accuracy [%] (validation standard MOV) | Long-term stability, 3 month, -80°C Accuracy [%] (validation standard MOV) | Long-term stability, 6 weeks, 4°C, without daylight Accuracy [%] (validation standard MOV) | also measured |
| --- | --- | --- | --- | --- | --- | --- | --- | --- | --- | --- | --- | --- | --- | --- | --- | --- | --- | --- | --- | --- | --- |
| CCN(CC)CCNC(=O)c1c(C)[nH]c(/C=C2\C(=O)Nc3ccc(F)cc32)c1C [Sunitinib] | 121.2 | 108.5 | 108.9 | 108.9 | 123.9 | 131.1 | 85.9 | 132.8 | 122.7 | 114.3 | 112.8 | 130.7 | 135.5 | 118.5 | 107.0 | 106.3 | 102.8 | 123.6 | 120.9 | 109.9 | Long-term stability, 6 weeks, 4°C, without daylight Accuracy [%] (validation standard LLOV): 96.2%; Long-term stability, 1 month, -20°C Accuracy [%] (validation standard ULOV): 119.5%; Long-term stability, 1 month, -80°C Accuracy [%] (validation standard ULOV): 109.0%; Long-term stability, 2 month, -20°C Accuracy [%] (validation standard ULOV): 109.7%; Long-term stability, 2 month, -80°C Accuracy [%] (validation standard ULOV): 108.8%; Long-term stability, 3 month, -20°C Accuracy [%] (validation standard ULOV): 122.5%; Long-term stability, 3 month, -80°C Accuracy [%] (validation standard ULOV): 118.4%; Long-term stability, 6 weeks, 4°C, without daylight Accuracy [%] (validation standard ULOV): 105.4% |
| COc1cc2ncnc(Nc3ccc(F)c(Cl)c3)c2cc1NC(=O)/C=C/CN1CCCCC1 [Dacomitinib] | 94.4 | 91.2 | 96.1 | 107.1 | 89.4 | 94.7 | 62.3 | 86.5 | 87.2 | 96.8 | 105.1 | 83.4 | 96.1 | 91.7 | 95.2 | 95.1 | 99.2 | 90.9 | 99.4 | 79.1 | Long-term stability, 6 weeks, 4°C, without daylight Accuracy [%] (validation standard LLOV): 61.0%; Long-term stability, 1 month, -20°C Accuracy [%] (validation standard ULOV): 93.0%; Long-term stability, 1 month, -80°C Accuracy [%] (validation standard ULOV): 93.2%; Long-term stability, 2 month, -20°C Accuracy [%] (validation standard ULOV): 96.3%; Long-term stability, 2 month, -80°C Accuracy [%] (validation standard ULOV): 99.6%; Long-term stability, 3 month, -20°C Accuracy [%] (validation standard ULOV): 90.3%; Long-term stability, 3 month, -80°C Accuracy [%] (validation standard ULOV): 97.6%; Long-term stability, 6 weeks, 4°C, without daylight Accuracy [%] (validation standard ULOV): 77.8% |
| CS(=O)(=O)c1ccc(C(=O)Nc2ccc(Cl)c(-c3ccccn3)c2)c(Cl)c1 [Vismodegib] | 105.4 | 99.5 | 106.5 | 104.3 | 100.1 | 99.6 | 107.5 | 92.5 | 88.6 | 94.1 | 96.9 | 84.3 | 84.4 | 97.8 | 97.9 | 103.0 | 103.7 | 101.3 | 100.9 | 109.8 | Long-term stability, 6 weeks, 4°C, without daylight Accuracy [%] (validation standard LLOV): 96.6%; Long-term stability, 1 month, -20°C Accuracy [%] (validation standard ULOV): 90.5%; Long-term stability, 1 month, -80°C Accuracy [%] (validation standard ULOV): 87.8%; Long-term stability, 2 month, -20°C Accuracy [%] (validation standard ULOV): 94.5%; Long-term stability, 2 month, -80°C Accuracy [%] (validation standard ULOV): 95.1%; Long-term stability, 3 month, -20°C Accuracy [%] (validation standard ULOV): 94.9%; Long-term stability, 3 month, -80°C Accuracy [%] (validation standard ULOV): 93.4%; Long-term stability, 6 weeks, 4°C, without daylight Accuracy [%] (validation standard ULOV): 96.5% |
| CNC(=O)c1cc(Oc2ccc(NC(=O)Nc3ccc(Cl)c(C(F)(F)F)c3)cc2)ccn1 [Sorafenib] | 103.7 | 110.1 | 109.9 | 106.2 | 94.5 | 108.7 | 74.5 | 106.1 | 102.7 | 109.0 | 106.5 | 100.5 | 111.4 | 106.1 | 108.3 | 112.2 | 118.4 | 94.0 | 100.4 | 106.5 | Long-term stability, 6 weeks, 4°C, without daylight Accuracy [%] (validation standard LLOV): 71.1%; Long-term stability, 1 month, -20°C Accuracy [%] (validation standard ULOV): 104.5%; Long-term stability, 1 month, -80°C Accuracy [%] (validation standard ULOV): 103.5%; Long-term stability, 2 month, -20°C Accuracy [%] (validation standard ULOV): 116.0%; Long-term stability, 2 month, -80°C Accuracy [%] (validation standard ULOV): 114.3%; Long-term stability, 3 month, -20°C Accuracy [%] (validation standard ULOV): 90.5%; Long-term stability, 3 month, -80°C Accuracy [%] (validation standard ULOV): 102.3%; Long-term stability, 6 weeks, 4°C, without daylight Accuracy [%] (validation standard ULOV): 99.7% |
| CCCS(=O)(=O)Nc1ccc(F)c(C(=O)c2c[nH]c3ncc(-c4ccc(Cl)cc4)cc23)c1F [Vemurafenib] | 102.1 | 105.7 | 110.6 | 108.1 | 97.3 | 105.9 | 86.3 | 105.8 | 101.6 | 104.5 | 98.7 | 106.2 | 114.9 | 104.9 | 106.7 | 116.1 | 119.1 | 92.9 | 96.8 | 97.8 | Long-term stability, 6 weeks, 4°C, without daylight Accuracy [%] (validation standard LLOV): 85.9%; Long-term stability, 1 month, -20°C Accuracy [%] (validation standard ULOV): 104.7%; Long-term stability, 1 month, -80°C Accuracy [%] (validation standard ULOV): 101.7%; Long-term stability, 2 month, -20°C Accuracy [%] (validation standard ULOV): 119.0%; Long-term stability, 2 month, -80°C Accuracy [%] (validation standard ULOV): 112.7%; Long-term stability, 3 month, -20°C Accuracy [%] (validation standard ULOV): 89.5%; Long-term stability, 3 month, -80°C Accuracy [%] (validation standard ULOV): 100.8%; Long-term stability, 6 weeks, 4°C, without daylight Accuracy [%] (validation standard ULOV): 94.4% |
| CCOc1cc2ncc(C#N)c(Nc3ccc(OCc4ccccn4)c(Cl)c3)c2cc1NC(=O)/C=C/CN(C)C [Neratinib] | 79.9 | 84.9 | 67.5 | 94.6 | 70.3 | 90.2 | 7.4 | 66.9 | 71.8 | 77.1 | 88.3 | 50.3 | 81.4 | 82.9 | 84.6 | 81.2 | 92.9 | 79.5 | 92.5 | 10.0 | Long-term stability, 1 month, -20°C Accuracy [%] (validation standard ULOV): 79.7%; Long-term stability, 1 month, -80°C Accuracy [%] (validation standard ULOV): 78.2%; Long-term stability, 2 month, -20°C Accuracy [%] (validation standard ULOV): 82.8%; Long-term stability, 2 month, -80°C Accuracy [%] (validation standard ULOV): 88.3%; Long-term stability, 3 month, -20°C Accuracy [%] (validation standard ULOV): 75.5%; Long-term stability, 3 month, -80°C Accuracy [%] (validation standard ULOV): 91.8%; Long-term stability, 6 weeks, 4°C, without daylight Accuracy [%] (validation standard ULOV): 8.5% |
| O=C1CN2Cc3c(ccc(Cl)c3Cl)N=C2N1 [Anagrelide] | 99.8 | 105.6 | 121.4 | 118.5 | 110.2 | 114.9 | 74.6 | 103.9 | 121.5 | 128.7 | 141.5 | 101.8 | 118.8 | 95.0 | 97.0 | 101.3 | 98.7 | 95.7 | 95.1 | 103.7 | Long-term stability, 6 weeks, 4°C, without daylight Accuracy [%] (validation standard LLOV): 33.5%; Long-term stability, 1 month, -20°C Accuracy [%] (validation standard ULOV): 95.4%; Long-term stability, 1 month, -80°C Accuracy [%] (validation standard ULOV): 90.8%; Long-term stability, 2 month, -20°C Accuracy [%] (validation standard ULOV): 94.5%; Long-term stability, 2 month, -80°C Accuracy [%] (validation standard ULOV): 99.2%; Long-term stability, 3 month, -20°C Accuracy [%] (validation standard ULOV): 94.9%; Long-term stability, 3 month, -80°C Accuracy [%] (validation standard ULOV): 94.7%; Long-term stability, 6 weeks, 4°C, without daylight Accuracy [%] (validation standard ULOV): 97.1% |
| NC(=O)c1cccc2cn(-c3ccc([C@@H]4CCCNC4)cc3)nc12 [Niraparib] | 101.4 | 94.5 | 104.1 | 106.0 | 99.8 | 95.7 | 96.1 | 97.8 | 93.4 | 101.8 | 102.4 | 96.1 | 95.4 | 99.8 | 99.6 | 105.3 | 103.9 | 102.2 | 100.4 | 104.5 | Long-term stability, 6 weeks, 4°C, without daylight Accuracy [%] (validation standard LLOV): 94.3%; Long-term stability, 1 month, -20°C Accuracy [%] (validation standard ULOV): 100.8%; Long-term stability, 1 month, -80°C Accuracy [%] (validation standard ULOV): 98.5%; Long-term stability, 2 month, -20°C Accuracy [%] (validation standard ULOV): 103.3%; Long-term stability, 2 month, -80°C Accuracy [%] (validation standard ULOV): 104.1%; Long-term stability, 3 month, -20°C Accuracy [%] (validation standard ULOV): 100.4%; Long-term stability, 3 month, -80°C Accuracy [%] (validation standard ULOV): 101.8%; Long-term stability, 6 weeks, 4°C, without daylight Accuracy [%] (validation standard ULOV): 96.4% |
